In series [1] the test system is polyclonal antiserum for [Arg^0]-BK. In words: Radioimmunoassay (RIA) for [Arg^0, Trp^5, Leu^8]-bradykinin. Type of series: binding, rabbit. Particulars: for crossreactivity in the RIA: relative to [Arg^0]-BK standard, peptides serially diluted in RIA buffer, antiserum 1:10,000, 4 °C, 24 h. Here is the method:
[Arg^0, Trp^5, Leu^8]-bradykinin ([Arg^0]-BK: RRPPGWSPLR) was synthesized by Phoenix Pharmaceuticals Inc. (Burlingame, CA, USA). [Arg^0]-BK was N-terminally conjugated to thyroglobulin by the glutaraldehyde method. Briefly, 5 mg thyroglobulin was mixed with 1 mg [Arg^0]-BK in 4 mL PBS (pH 7.0) and glutaraldehyde was added to a final concentration of 0.05 %. The mixture was incubated at 25 °C for 1 h with gentle agitation and reaction was stopped by addition of 0.1 mL ethanolamine. The mixture was dialyzed against 1 L PBS overnight at 4 °C and protein concentration was determined. For each injection, 0.2 mg conjugated protein was used and three rabbits were first immunized with the conjugated protein in Freund’s complete adjuvant followed by two booster immunogen injections in Freund’s incomplete adjuvant. The interval between injections was 4 weeks and the rabbits were sacrificed for final bleeds 3 weeks after the third immunization.
Synthetic [Tyr^-1, Arg^0, Trp^5, Leu^8]-bradykinin (YRRPPGWSPLR) was radiolabeled by ^125I using the lactoperoxidase method and the iodinated peptide was purified by an HPLC system. The ^125I-BK was diluted in RIA buffer containing 0.1% RIA-grade bovine serum albumin to produce ~10,000 cpm per assay tube. The titers of the antiserum were determined by serial dilution and maximum binding was adjusted at 20 % of the total binding. […] Unbound fractions were removed by aspiration and specific binding in the pellet was measured using a gamma counter (Perkin Elmer, MA, USA). […]
(§1) To test the degradation rate of [Arg^0]-BK in plasma in vitro, 3 blood samples with inhibitor cocktail were prepared. […] The immunoreactive (ir)-[Arg^0]-BK was measured using the newly established RIA. […] The concentration of [Arg^0]-BK in the HPLC fractions were measured to determine the percentage recovery. Synthetic [Trp^5, Leu^8]-BK (BK) and [Arg^0, Trp^5, des-Leu^8, des-Arg^9]-bradykinin were serially diluted in RIA buffer and measured by RIA to determine the cross-reactivities among these closely related peptides.

The nature of series [2]: Degradation rate of [Arg^0]-BK in plasma in vitro. Particulars: plasma with inhibitor cocktail (1,10-phenanthroline, potassium EDTA, aprotinin), spiked 3,000 fmol/mL, 25 °C, 0, 10 and 30 min, Sep-Pak extraction, RIA read-out, n = 3, Student t-test p > 0.05. Format: in vitro ADME, Japanese eel. Here is the method:
(§2) Juvenile, sexually immature Japanese eel (Anguilla japonica; 160 - 220 g), tilapia (Oreochromis niloticus; 50 - 100g), rainbow trout (Oncorhynchus mykiss; 100 - 200 g), and adult medaka of both sex (Oryzias latipes; 1.5 - 2.2 g) were kept in a freshwater recirculating aquarium system in the Atmosphere and Ocean Research Institute, the University of Tokyo. The water was maintained at 12 °C for trout, 18 °C for eel, 25 °C for tilapia, and 27 °C for medaka, and all animals were exposed to a 14/10 h light/dark cycle throughout the experiment. All animal experimental procedures were approved by the Animal Experiment Committee of the University of Tokyo. Fish were anesthetized by 0.1% ethyl 3-aminobenzoate methanesulfonate (Sigma, St. Louis, MO) neutralized with sodium bicarbonate. […]
as §1

A short description of series [3]: Spiking of pooled plasma, Sep-Pak/HPLC extraction and RIA (recovery and integrity). Particulars: pooled eel plasma with inhibitor cocktail spiked to 300, 1000, 3000 fmol/mL, ir-BK profile by RIA. Details: species or system Japanese eel. Here is the method: as §2, with “Tokyo.” for “Tokyo. Fish were anesthetized by 0.1% ethyl 3-aminobenzoate methanesulfonate (Sigma, St. Louis, MO) neutralized with sodium bicarbonate.”
The plasma samples were purified by Sep-Pak C18 cartridge, with equilibration buffer (100 mM Tris-HCl, 0.5 M NaCl, pH 7.4) for binding and absolute methanol for elution. The partially purified plasma was further resolved by a reverse-phase HPLC system (Tosoh PU-980, Tokyo) attached to a UV-absorbance detector (Tosoh, UV-970, Tokyo) and utilizing an analytical column (ODS 100S column, 4.6 mm I.D. x 25 cm, C-18, 5 μm particle size, Tosoh, Tokyo). […]
To test the degradation rate of [Arg^0]-BK in plasma in vitro, 3 blood samples with inhibitor cocktail were prepared. […] The immunoreactive (ir)-[Arg^0]-BK was measured using the newly established RIA. […]

A further series deals with eel. Particulars: compared with BK, ref [14]; cited from earlier work.

Entries after “also recorded” stand apart in the source; their conditions may differ.

Take “RRPPGWSPLR [[Arg^0]-BK, [Arg^0, Trp^5, Leu^8]-bradykinin, synthetic teleost decapeptide kinin, […], from Phoenix Pharmaceuticals]”: the EC50 in series [1] (displacement of 125I-[Tyr^-1, Arg^0, Trp^5, Leu^8]-bradykinin tracer, antiserum 1:10,000, 4 °C for 24 h, gamma counter, measurements in duplicate) was found to be 550 pM. Moreover, the “ir-[Arg^0]-BK content after incubation in plasma” value in series [2] is given as “did not alter the peptide contents; also recorded: not statistically different among various time points”. Moreover, in series [3], the “integrity of spiked [Arg^0]-BK in plasma (conversion to BK)” value is “remained as a single ir-peak; also recorded: remained intact”. The “potency in eliciting cardiovascular and antidipsogenic effects” value in the series on eel is “more potent than BK”.
On to “[Arg^0, Trp^5, des-Leu^8, des-Arg^9]-bradykinin [[Arg^0, Trp^5, des-Leu^8, des-Arg^9]-BK]”, for which the “crossreactivity in the RIA” value in series [1] is reported as “negligible crossreactivity”.
For [Trp^5, Leu^8]-BK, the “crossreactivity in the RIA” value in series [1] is 71.3%.

Values taken from publication PMC3835742, “Lack of Plasma Kallikrein-Kinin System Cascade in Teleosts” (PLoS ONE, 2013).
